“And” between values parts separate entries of the source, which are not always exact repeats. Equal values may be shown once. Numbers after ± are expanded uncertainties.
Settings: 313.15 K; Liquid

Which “vapor or sublimation pressure” value does the source give for `c1ccccc1` [benzene] here?
Its value is 24.38 ± 0.18 kPa and 24.36 ± 0.18 kPa.

With `CC(C)OC(C)C` [diisopropyl ether] as the compound, how does the “vapor or sublimation pressure” value read?
Its value is 37.11 ± 0.27 kPa and 37.09 ± 0.27 kPa and 37.14 ± 0.27 kPa.

With `CC(C)CO` [2-methyl-1-propanol] as the compound, how does the “vapor or sublimation pressure” value read?
The value was 4.015 ± 0.056 kPa [middle of 4 runs].
